Test system: chromatin remodeling (pericentromeric heterochromatin)
Test: Chromatin remodeling with G9a inhibitor, effect of Tau (data not shown)
Format: cell-based

SMILES: COc1cc2nc(N3CCCN(C)CC3)nc(NC3CCN(Cc4ccccc4)CC3)c2cc1OC [BIX 01294]
- effect of Tau in preventing chromatin remodeling, compared with trichostatin A: same results

— patent publication US20250134952A1, “METHODS FOR IMPROVING THE EFFICACY OF HDAC INHIBITOR THERAPY AND PREDICTING THE RESPONSE TO TREATMENT WITH HDAC INHIBITOR” (INSTITUT NATIONAL DE LA SANTÉ ET DE LA RECHERCHE MÉDICALE, priority 2021, published 2025)
